SMILES strings stand for the structures.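 Dose response: 5 concentrations. Exposure: 48 h. Format: 96-well plates. Endpoint: linear interpolation; highest concentration if not reached. GI50: concentration for 50% inhibition of growth.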 Activity calls are given as the source filed them. Cut-off read from the data, not from the text of the source: active = GI50 up to about 1.1 µM and inactive = higher. A value given as a limit tells only on which side of the number the result lay.

Among the test systems are 786-0; OVCAR-5; NCI-H460; SK-MEL-5; K562; RPMI-8226; SK-MEL-2; NCI-H226; HL-60; HCT-15; SF-268; U-251; IGROV-1; A549; NCI-H522; CAKI-1.
Common to all, as to assay: growth of human tumour cells (NCI), 48 h

`O=C1c2ccccc2C2C1N2C(=O)C(F)(F)F` (stereo not drawn): the GI50 with 786-0 was > 100 µM (inactive); with OVCAR-5 it was > 100 µM (inactive); in the assay with NCI-H460, > 100 µM (inactive); in the assay with SK-MEL-5, > 100 µM (inactive); with K562, 44.2 µM (inactive); in the assay with RPMI-8226 it was > 100 µM (inactive). In addition, the GI50 in the assay on SK-MEL-2 was > 100 µM (inactive); in the assay on NCI-H226 it was > 100 µM (inactive); in the assay with HL-60, 24.7 µM (inactive); with HCT-15 it was greater than 100 µM; in the assay with SF-268 it was > 100 µM (inactive); in the assay on U-251, > 100 µM (inactive). Moreover, the GI50 in the assay on IGROV-1, in the assay on A549, with NCI-H522 and with CAKI-1 was > 100 µM (inactive) each time.
Regarding `CC(C)C(=S)N(C)O`, the GI50 in the assay with 786-0 was 18.3 µM (inactive); in the assay with OVCAR-5, > 65.5 µM (inactive); with NCI-H460, 5.69 µM (inactive); with SK-MEL-5 it was 8.02 µM (inactive); in the assay on K562, 0.42 µM (active); in the assay on RPMI-8226, 0.518 µM (active). Besides, the GI50 was 24.5 µM (inactive) with SK-MEL-2; 44 µM (inactive) in the assay on NCI-H226; 1.35 µM (inactive) with HL-60; 24.2 µM in the assay with HCT-15; 27.6 µM (inactive) in the assay with SF-268; 28.4 µM (inactive) in the assay with U-251. For the same compound, the GI50 in the assay on IGROV-1 was > 62.5 µM (inactive); in the assay with A549, 12.4 µM (inactive); in the assay with NCI-H522, 6.08 µM (inactive); in the assay with CAKI-1, 19.9 µM (inactive).
`CCOC(OC1=CCCC1)C(C)[Se]c1ccccc1` (stereo not drawn): the GI50 was 19.1 µM (inactive) with 786-0; 28.9 µM (inactive) in the assay on OVCAR-5; 19.6 µM (inactive) in the assay on NCI-H460; 18.3 µM (inactive) in the assay on SK-MEL-5; 55.5 µM (inactive) in the assay on K562; 18.1 µM (inactive) in the assay on RPMI-8226. For the same compound, the GI50 was 48.4 µM (inactive) in the assay on SK-MEL-2; 36.1 µM (inactive) in the assay on NCI-H226; 14.6 µM (inactive) in the assay on HL-60; 16.8 µM in the assay on HCT-15; 17.6 µM (inactive) in the assay with SF-268; 16.3 µM (inactive) in the assay with U-251. Moreover, the GI50 was 41 µM (inactive) in the assay with IGROV-1, 34.8 µM (inactive) with A549, 17.9 µM (inactive) in the assay on NCI-H522 and 65.8 µM (inactive) in the assay with CAKI-1.
For the compound `Cc1ccc(S(=O)(=O)OCCn2cnc3nc(NC(=O)c4ccccc4)[nH]c(=O)c32)cc1`, the GI50 with 786-0, with OVCAR-5, with NCI-H460, in the assay on SK-MEL-5, with K562 and in the assay on RPMI-8226 was > 100 µM (inactive) throughout. Further, the GI50 is > 100 µM (inactive) with SK-MEL-2; > 100 µM (inactive) with NCI-H226; > 100 µM (inactive) in the assay with HL-60; greater than 100 µM in the assay with HCT-15; > 100 µM (inactive) in the assay with SF-268; > 100 µM (inactive) with U-251. In addition, the GI50 in the assay on IGROV-1 is > 100 µM (inactive); in the assay with A549, > 100 µM (inactive); in the assay on NCI-H522 it was 52.6 µM (inactive); with CAKI-1, > 100 µM (inactive).
`COc1ccc2c3c([nH]c2c1[N+](=O)[O-])C(C)N(Cc1ccc([N+](=O)[O-])cc1)CC3` (stereo not drawn): the GI50 in the assay on 786-0 was > 100 µM (inactive); in the assay on OVCAR-5, 31.6 µM (inactive); in the assay on NCI-H460, 11.8 µM (inactive); in the assay on K562, 3.22 µM (inactive); in the assay on RPMI-8226, 4.12 µM (inactive); with SK-MEL-2 it was 14.5 µM (inactive). The GI50 is 18.1 µM (inactive) with NCI-H226; 3.22 µM (inactive) in the assay on HL-60; 15.6 µM in the assay with HCT-15; 2.48 µM (inactive) in the assay on SF-268; 15.7 µM (inactive) with U-251; 39.8 µM (inactive) in the assay with IGROV-1. Also, the GI50 with A549 was > 100 µM (inactive); with NCI-H522, 3.96 µM (inactive); in the assay with CAKI-1, 3.89 µM (inactive).
On to `CC(=O)O/N=C/c1ncccc1OC(C)=O`, for which the GI50 in the assay with 786-0, in the assay with OVCAR-5, in the assay with NCI-H460, with SK-MEL-5, with K562 and in the assay with SK-MEL-2 was > 100 µM (inactive) throughout. Moreover, the GI50 in the assay with NCI-H226 was > 100 µM (inactive); in the assay on HL-60, > 100 µM (inactive); with HCT-15, greater than 100 µM; with SF-268, > 100 µM (inactive); in the assay with U-251, > 100 µM (inactive); with IGROV-1, > 100 µM (inactive). For the same compound, the GI50 in the assay with A549, in the assay on NCI-H522 and with CAKI-1 was > 100 µM (inactive) in each case.
Regarding `NCCCNC(=O)c1csc(NC(=O)c2csc(NC(=O)CCCN)n2)n1`, the GI50 with 786-0, in the assay on OVCAR-5, with NCI-H460, with SK-MEL-5, in the assay with K562 and in the assay with RPMI-8226 was > 100 µM (inactive) each time. The GI50 is > 100 µM (inactive) in the assay with SK-MEL-2; > 100 µM (inactive) with NCI-H226; > 100 µM (inactive) in the assay on HL-60; greater than 100 µM in the assay on HCT-15; > 100 µM (inactive) in the assay with SF-268; > 100 µM (inactive) in the assay with U-251. For the same compound, the GI50 in the assay on IGROV-1, in the assay on A549, with NCI-H522 and in the assay with CAKI-1 was > 100 µM (inactive) throughout.
Consider `CC(=O)Nc1ccc(C(=O)N2N=C(C)/C(=C/c3cccc([N+](=O)[O-])c3)C2=O)cc1`, for which the GI50 in the assay on 786-0, in the assay with OVCAR-5, with NCI-H460, in the assay on SK-MEL-5, in the assay with K562 and in the assay with RPMI-8226 was > 100 µM (inactive) each time. Also, the GI50 in the assay with NCI-H226, with HL-60, in the assay on SF-268, with A549, with NCI-H522 and in the assay on CAKI-1 was > 100 µM (inactive) each time.
Turning to `COc1cc(/C=C2\[C@H]3c4c(c(OC)c(C)c(OC)c4OC)CC(C(=O)N2Cc2ccccc2)N3C)c(OC)c(C)c1OC`, the GI50 in the assay on 786-0 is 18.1 µM (inactive); in the assay with OVCAR-5, 20.6 µM (inactive); in the assay with NCI-H460, 16.6 µM (inactive); in the assay with SK-MEL-5, 19 µM (inactive); in the assay on K562 it was 27.6 µM (inactive); in the assay with RPMI-8226, 20.6 µM (inactive). The GI50 in the assay on SK-MEL-2 was > 10 µM (inactive); in the assay on NCI-H226 it was 10.4 µM (inactive); in the assay on HL-60 it was 15.7 µM (inactive); with SF-268, 27.2 µM (inactive); with U-251, 19.5 µM (inactive); in the assay on IGROV-1, 21.8 µM (inactive). The GI50 in the assay with A549 is > 100 µM (inactive); in the assay with NCI-H522, 13.1 µM (inactive); in the assay with CAKI-1 it was 30.3 µM (inactive).
Regarding `COC(=O)[C@@H]1C(=O)O[C@@H](c2ccc(OC)c(OC)c2OC)[C@@H]1C(=O)OC.COC(=O)[C@H]1C(=O)O[C@@H](c2ccc(OC)c(OC)c2OC)[C@@H]1C(=O)OC`, the GI50 in the assay on 786-0, in the assay with OVCAR-5, with NCI-H460, with SK-MEL-5, in the assay on K562 and with RPMI-8226 was > 100 µM (inactive) throughout. Also, the GI50 in the assay on NCI-H226 is > 100 µM (inactive); with HL-60, > 100 µM (inactive); in the assay with HCT-15, greater than 100 µM; in the assay on SF-268, > 100 µM (inactive); with U-251, > 100 µM (inactive); in the assay with IGROV-1, > 100 µM (inactive). For the same compound, the GI50 in the assay on A549, in the assay with NCI-H522 and with CAKI-1 was > 100 µM (inactive) throughout.
Consider `CN1N=C2c3ccccc3CC[C@H]2C1c1cccc(O)c1` (stereo partly drawn), for which the GI50 in the assay on 786-0 was > 100 µM (inactive); with OVCAR-5, > 100 µM (inactive); with NCI-H460, 81.1 µM (inactive); with K562, 74.1 µM (inactive); in the assay on RPMI-8226, > 100 µM (inactive); in the assay on SK-MEL-2, > 100 µM (inactive). In addition, the GI50 with NCI-H226 is > 100 µM (inactive); in the assay with HL-60 it was > 100 µM (inactive); with HCT-15, greater than 100 µM; with SF-268, > 100 µM (inactive); in the assay on U-251, > 100 µM (inactive); with IGROV-1, > 100 µM (inactive). Further, the figures for the GI50 in the assay on A549 and in the assay with NCI-H522 were 85.5 µM (inactive) and > 100 µM (inactive), respectively.
`CCCCCCCC[N+](C)(C)Cc1ccc(C[N+](C)(C)CCCCCCCC)cc1`: the GI50 is > 100 µM (inactive) in the assay with 786-0; > 100 µM (inactive) in the assay with OVCAR-5; 28.6 µM (inactive) in the assay with NCI-H460; 36.7 µM (inactive) in the assay with SK-MEL-5; 28.4 µM (inactive) in the assay on K562; 90.2 µM (inactive) in the assay with RPMI-8226. Also, the GI50 was 14.9 µM (inactive) with SK-MEL-2; 34.5 µM (inactive) in the assay on NCI-H226; 36.4 µM (inactive) in the assay with HL-60; greater than 100 µM with HCT-15; > 100 µM (inactive) with SF-268; 6.53 µM (inactive) in the assay with U-251. Besides, the GI50 with IGROV-1 was 13.4 µM (inactive); in the assay with A549, 32.8 µM (inactive); in the assay on NCI-H522 it was 5.58 µM (inactive); in the assay with CAKI-1, 45.4 µM (inactive).
For `O=C(O)CCCNS(=O)(=O)c1ccccc1`, the GI50 in the assay on 786-0, with OVCAR-5, in the assay on NCI-H460, in the assay with SK-MEL-5, in the assay on K562 and with RPMI-8226 was > 100 µM (inactive) throughout. Moreover, the GI50 in the assay on SK-MEL-2 was > 100 µM (inactive); in the assay with NCI-H226, > 100 µM (inactive); in the assay on HL-60, > 100 µM (inactive); in the assay with HCT-15, greater than 100 µM; in the assay on SF-268 it was > 100 µM (inactive); with U-251, > 100 µM (inactive). Further, the GI50 in the assay with IGROV-1, in the assay with A549, in the assay with NCI-H522 and with CAKI-1 was > 100 µM (inactive) each time.
